In patent US20260286012A1, “ANTI-OUABAIN NANOBODY AND APPLICATION THEREOF” (priority 2023, published 2026):

How the values were obtained:
Hela cells [1] = experiment: MTT determination of cell survival rate; format: cell-based; set-up: dose or concentration left out as unconfirmed; conditions: ouabain for 48 h and 24 h, respectively
Procedure: By methyl thiazolyl tetrazolium (MTT), the cell survival rate was measured. When the cell density in a 6-well plate reached 80%-90%, the cells were digested, and centrifuged at 1000 rpm for 5 min; a cell precipitate was left, added with 1 mL of culture solution and then resuspended; and the cells were counted with a cell counting plate. 100 µL of cell suspension was added to a 96 ELISA plate at 1×10^4 cells/well, and sterile PBS was added around cell wells. The cells were cultured on a 96-well plate for 12 to 24 h. When the cell growth density reached 60% to 80%, a drug could be added to treat the cells at this point. […] The absorbance of each well was detected with a microplate reader at 490 nm and the cell survival rate was calculated. […]
(§1) High-concentration ouabain can lead to apoptosis of cells. To study the pharmacological effect of ouabain Nb, this study treated Hela cells with ouabain and ouabain Nb, and detected the effects of ouabain and antibody protein on the cell survival rate by an MTT method. […] To further verify the biological activity of ouabain Nb, the Ca^2+ concentration in the HeLa cells was detected by neutralizing ouabain monomers with ouabain Nb. […] After incubation of ouabain Nb (5 μM) and ouabain, the cells were treated and the Ca^2+ concentration was detected.

Hela cells [2] = experiment: Flow cytometry assay for intracellular Ca2+ level; format: cell-based; conditions: 250 nM ouabain vs control group
Procedure: The cells were cultured in a 12-well cell culture dish. When the cell growth density reached 60% to 80%, a drug could be added to treat the cells. The medium was removed from the treated cells under dark conditions, and the cells were rinsed with pre-warmed HBSS for three times to eliminate esterases and other substances in the medium to reduce their degradation to an ion probe. 1-5 μM of Fluo4-AM working solution was added, such that the cells were completely covered with the working solution and incubated in a cell incubator for 40 min at a constant temperature. The Fluo4-AM working solution was discarded, and the cells were washed with HBSS for three times to thoroughly remove any remaining dye Subsequently. […]
as §1

Question: How did the “survival rate of the cells treated with ouabain” value (Hela cells [1]) turn out when `C[C@@H]1O[C@@H](O[C@H]2C[C@@H](O)[C@]3(CO)[C@H]4[C@H](O)C[C@]5(C)[C@@H](C6=CC(=O)OC6)CC[C@]5(O)[C@@H]4CC[C@]3(O)C2)[C@H](O)[C@H](O)[C@H]1O` [ouabain, Ouabain] was run?
Answer: reduced to half of the original

Question: What about the “Ca2+ concentration in HeLa cells” value (Hela cells [2]) of the same molecule?
Answer: significantly higher than that in the control group
